Results reported in patent US20210236605A1, “COMBINATIONS OF OSTEOPONTIN AND 2'-FUCOSYLLACTOSE FOR USE AS MEDICAMENTS” (HEALTH AND HAPPINESS (H&H) HONG KONG LIMITED, priority 2018, published 2021).

How the values were obtained:
serum IgE = experiment: Determination of serum IgE levels (ELISA) in DNCB sensitized mice; assay type: in vivo; conditions: day 27, DNCB-sensitized BALB/c mice (DNCB saline group 1025.02±82.68), FIG. 3; combination = high dose, trial 8
Experimental: (§1) Balb/c mice were purchased from the Animal Center of Southern Medical University (Guangzhou, China). The animals were maintained under a 12-h light/dark cycle in a specific pathogen-free animal facility at a controlled temperature (20-25° C.) and humidity (50±5%). All mice were fed with regular diet and autoclaved water. All animal experiments in this study were approved by the Welfare and Ethical Committee for Experimental Animal Care of Southern Medical University. To induce AD-like symptom, dinitrochlorobenzene (DNCB) solution (dissolved in a 3:1 mixture of acetone and olive oil) was applied to the dorsal skin and ears of mice (female, 6-8 weeks old). One day after complete dorsal hair removal (approximately 4 cm^2), 150 μl of 2% DNCB solution was applied on the dorsal skin, and 10 μl each were applied to the back of both ears at day 1. Four days after sensitization, 0.5% DNCB dissolved in an acetone:olive oil mixture (3:1 vol/vol) is applied to challenge the dorsal skin (150 μl) and the back of both ears (10 μl each) once every two days, (days-27). OPN and 2-FL were dissolved in 0.9% normal saline. […]
Individual mouse serum was collected on the last day of the experiment. Serum levels of IgE were quantified using the commercial enzyme-linked immunosorbent assay (ELISA) kits (Invitrogen, San Diego, USA) according to the manufacturer's instructions. […]

[1] = tested on: scratching behaviour (pruritus) in DNCB-treated BALB/c mice; experiment: Assessment of scratching behaviour in DNCB-treated BALB/c mice; assay type: in vivo; conditions: oral administration, FIG. 2, combination esp. trials 7 & 8
Experimental: as §1, with “(days-27).” for “(days-27). OPN and 2-FL were dissolved in 0.9% normal saline.”
Mice were placed into cages for 1 h for habituation. After habituation, the number of scratching episodes for 15 min was counted macroscopically. A series of scratching movements made with the paw was counted as one scratching episode. The total scratching behaviour number was calculated within 15 min. […]

[2] = tested on: DNCB-induced AD-like symptoms in BALB/c mice; experiment: Evaluation of AD score / AD-like symptoms in DNCB-induced BALB/c AD model; assay type: in vivo; conditions: for severity of DNCB-induced AD-like symptoms: BALB/c mice, OPN 37.5 or 2.7 mg/kg(bw)/day, 2-FL 600 or 75 mg/kg(bw)/day, compared with saline-supplemented mice; for AD score (dermatitis score, AD-like symptoms): oral administration, DNCB-treated BALB/c mice, FIG. 1, combinations esp. trials 7 and 8 (high OPN)
Source text: To investigate the potential therapeutic effect of OPN or 2-FL or an OPN/2FL combination on inflammation and emergence of atopic dermatitis (AD), BALB/c AD model was established by topical application of DNCB on each ear and the dorsal skin. Edema, excoriation, erythema, and scarring were apparent on the skin of DNCB sensitized mice after multiple challenged of DNCB. Strikingly, the severity of DNCB-induced AD-like symptoms in BALB/c mice was ameliorated upon supplementation with OPN (37.5 or 2.7 mg/kg(bw) day) and 2-FL (600 or 75 mg/kg(bw)·day) compared with saline-supplemented mice. Pruritus is an essential feature of AD. The scratching behaviour has already been established as an objective indicator to evaluate pruritus in animal model.
Balb/c mice were purchased from the Animal Center of Southern Medical University (Guangzhou, China). The animals were maintained under a 12-h light/dark cycle in a specific pathogen-free animal facility at a controlled temperature (20-25° C.) and humidity (50±5%). All mice were fed with regular diet and autoclaved water. All animal experiments in this study were approved by the Welfare and Ethical Committee for Experimental Animal Care of Southern Medical University. To induce AD-like symptom, dinitrochlorobenzene (DNCB) solution (dissolved in a 3:1 mixture of acetone and olive oil) was applied to the dorsal skin and ears of mice (female, 6-8 weeks old). One day after complete dorsal hair removal (approximately 4 cm^2), 150 μl of 2% DNCB solution was applied on the dorsal skin, and 10 μl each were applied to the back of both ears at day 1. Four days after sensitization, 0.5% DNCB dissolved in an acetone:olive oil mixture (3:1 vol/vol) is applied to challenge the dorsal skin (150 μl) and the back of both ears (10 μl each) once every two days, (days-27). OPN and 2-FL were dissolved in 0.9% normal saline. Mice treated with DNCB are intragastrically administered with 2-FL, OPN or 2-FL plus OPN from day 0 to day 27. The mice in the vehicle and another DNCB groups are given an equal volume of physiological saline.
The severity of dorsal skin lesions were assessed macroscopically according to the following four symptoms: edema, erythema/hemorrhage, excoriation/erosion, and scarring/dryness, and the sum of the individual scores (0, no symptoms; 1, mild; 2, moderate; 3, severe), ranging from 0 to 12, was defined as the final dermatitis scores. These visual assessments were performed every two day and by at least two independent investigators.
FIG. 1: OPN and 2-FL alleviation of AD-like symptoms induced—as per dermatitis score evaluation—by DNCB in BALB/c mice. […]

[3] = tested on: cytokine mRNA expression in skin (TSLP, IL-4, IL-17, IFN-γ, T-bet, GATA3, ROR-γt); experiment: Quantitative RT-PCR of cytokine and transcription factor mRNA in dorsal skin of DNCB-treated mice; assay type: in vivo, BALB/c mice; conditions: dorsal skin / skin lesions, ratio to GAPDH, vs saline-treated/control AD mice
Experimental: Total RNA was isolated from the dorsal skin of the control and treated BALB/c mice. Subsequently, cytokine mRNA expression in the skin sample was measured by RT-PCR.
Balb/c mice were purchased from the Animal Center of Southern Medical University (Guangzhou, China). The animals were maintained under a 12-h light/dark cycle in a specific pathogen-free animal facility at a controlled temperature (20-25° C.) and humidity (50±5%). All mice were fed with regular diet and autoclaved water. All animal experiments in this study were approved by the Welfare and Ethical Committee for Experimental Animal Care of Southern Medical University. […]
Total RNA was isolated from dorsal skin using TRIzol (TransGen Biotech, Beijing, China) according to manufacturer's instruction. 500 ng RNA was quantified for the reverse transcription reaction with TranScript All-in-One First-Strand cDNA Synthesis SuperMix (TransGen Biotech, Beijing, China) in a total volume of 10 μL. Quantitative real-time PCR (RT-PCR) analysis of gene expression was performed using TransStart Green qPCR SuperMix (TransGen Biotech, Beijing, China). […]
FIGS. 5 (a), (b) and (c): Relative mRNA expression levels of Th2-associated cytokines ((a) TSLP and (b) IL-4) and IL17a, as measured by RT-PCR and expressed as a ratio of GAPDH, extracted from BALB/c mice treated with DNCB in the presence and absence of OPN and/or 2FL. *p<0.05, **p<0.01. […]

Substance | serum IgE concentration (serum IgE) | scratching behaviour (number of scratching episodes for 15 min) [1] | severity of DNCB-induced AD-like symptoms [2] | AD score (dermatitis score, AD-like symptoms) [2] | IL-17 mRNA expression in skin [3]
2′-fucosyllactose [2-FL] | 621.27 ± 46.79 µg/mL | reduced scratching behaviour | ameliorated | reduced substantially | significantly lower
osteopontin [OPN] | 388.22 ± 61.28 µg/mL | reduced scratching behaviour | ameliorated | reduced substantially | significantly lower
